This note sets out measurements from US6337394B2, “Compounds” (AstraZeneca AB, priority 1997, dated 2002).

The test addresses T1, Human thrombin (Homo sapiens, UniProt P00734).
T1 construct: purchased Sigma Chem. Co. T 6769
The test can be described thus: Determination of Thrombin Clotting Time (TT), Test A. It counts as biochemical. To be noted: concentration of inhibitor that doubles the thrombin clotting time for human plasma; pooled normal citrated human plasma, pH 7.4. The method, then:
Determination of Thrombin Clotting Time (TT)
Human thrombin (T 6769, Sigma Chem. Co.) in buffer solution, pH 7.4, 100 μL, and inhibitor solution, 100 μL, were incubated for one min. Pooled normal citrated human plasma, 100 μL, was then added and the clotting time measured in an automatic device (KC 10, Amelumg).
The clotting time in seconds was plotted against the inhibitor concentration, and the IC50TT was determined by interpolation.
IC50TT is the concentration of inhibitor in the test that doubles the thrombin clotting time for human plasma.

What is called IC50 is the concentration at which inhibition is half-maximal. A lower IC50 goes with greater potency. On to `COc1ccc(OC)c(C(CO)C(=O)N2CCCC2C(=O)NCc2ccc(C(=N)N)cc2C)c1` (single isomer, unassigned) [Example 2, (2,5-diMeO)Ph—(R or S)CH(CH2OH)—CO-Pro-Pab(2-Me)×HOAc], for which the IC50 was less than 300 nM.
